Test results taken from PubChem BioAssay AID179 (DTP/NCI, 2004).
Activity calls are given as the source filed them.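 The calls were made as follows: active = compounds giving half or more protection of infected cells from virus-caused growth loss, again on retest; inactive = the rest.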 *1 amine or outer side, *2 acyl side, *3 side chain or, on linkers, in order; H or OH if unused. Where a SMILES comes first, the peptide text is derived from it. Bridges are numbered along the chain shown (N, C = ends). [ ]: non-standard residue; d: D form. The star is where a group is joined. Fmoc = O=C(OCC1c2ccccc2-c2ccccc21)*; X2 = O=C(C(CCCCNO[*:3])N[*:1])[*:2]

Tested on: CEM cells HIV-1 protection, formazan growth assay
Assay: NCI AIDS Antiviral Assay
Conditions: for IC50: measured here: growth of uninfected CEM cells
Procedure, shortened: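 Five concentrations of each compound were applied to infected and uninfected human CEM cells. Protection from HIV-1 was judged from growth measured with a soluble formazan assay.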

SMILES | EC50 [µM] | IC50 [µM] | outcome
CCOc1ccc(NC(=O)C(=O)C2C(=O)Nc3ccccc3S2=O)cc1 (centres undefined) | > 50.1 | > 50.1 | –
COc1cc2nncc(SCc3ccc(Cl)cc3Cl)c2cc1OC | > 56.2 | 52.5 | –
CN(C)CCc1ccnc2nc(-c3ccc4ccccc4c3)cn12 | > 200 | 32.4 | –
O=C(NC(=O)C(Cc1ccccc1)c1ccccc1)C(Cc1ccccc1)c1ccccc1 (centres undefined) | > 12 | > 12 | –
COc1ccc(/C=N/N=C(\[O-])c2ccncc2)cc1F.COc1ccc(/C=N\N=C(/[O-])c2ccncc2)cc1F.[Cu+2] | > 100 | 18.6 | –
CCCCCCCCCCCCCCCC(O)S(=O)(=O)O (centres undefined) | > 100 | 15.1 | –
O=S(Nc1ccccc1)c1cccc(Cl)c1 (centres undefined) | – | – | inactive
CCCCCCCCCCn1nnc2c(=O)[nH]c(N)nc21 | > 200 | 52.5 | –
O=C(Nc1ccccc1-c1nn(C(=S)Nc2ccccc2)c(=S)n(C(=S)Nc2ccccc2)c1=O)C(F)(F)F | – | – | inactive
CC1=CCC[C@@H]2C1(C)CCC(C)[C@@]2(C)CC1=CC(=O)C=CC1=O (some centres undefined) | > 50.1 | 11.5 | –
CC(=O)N(CCCCNC(=O)C(F)(F)F)CCCNC(=O)C(F)(F)F | > 200 | > 200 | –
O=C(c1ccccc1)C(c1ccccc1)C1(O)C(=O)Nc2c(Cl)ccc(Cl)c21 (centres undefined) | > 17.4 | > 17.4 | –
COCCNC1CCC2(SCCS2)c2[nH]c3ccccc3c21 (centres undefined) | > 200 | 39.8 | –
CN(C)CCNC(=O)c1cccc2c(NCCN(C)C)c3ccccc3nc12 | > 20 | 2.09 | –
ClC(Cl)(Cl)SSC(=Nc1ccccc1)SSC(Cl)(Cl)Cl | > 200 | 4.79 | –
O=C(/C=C(\O)c1ccc(Cl)cc1)C(=O)NN=C(c1ccccc1)c1ccccc1 | > 200 | 16.6 | –
N#Cc1c(=N)cc2c3ccccc3oc3c(C#N)c(N)[nH]c1c32 | > 200 | 195 | –
NC(=O)c1ncn(CCCCCO)c1N | > 200 | > 200 | –
C=C(CN(C)C)C(=O)c1ccc(OC)cc1 | – | – | inactive
CC(C)(Oc1ccc(Cl)cc1)C(=O)N(C(=O)N1CCC(c2ccccc2)CC1)c1ccccc1 | > 200 | 7.41 | –
COc1ccc(OC)c2c(C(C)=O)cccc12 | > 200 | 97.7 | –
O=C(C#Cc1ccccc1)N1c2ccccc2CC1c1c[nH]c2ccccc12 (centres undefined) | > 20 | 8.32 | –
CCC1(CC2CCCN(C)C2)c2ccccc2Sc2ccccc21 (centres undefined) | > 200 | 11 | –

SMILES | EC50 [µM] | IC50 [µM] | outcome
O=C1c2ccccc2C(=O)c2c1nc1sccn21 | > 200 | 32.4 | –
Cc1[nH]n(-c2nc3c(c(=O)[nH]2)CCC3)c(=O)c1CCO | > 200 | 182 | –
COC(=O)CCN1CCN(CCO)CC1C (centres undefined) | > 200 | > 200 | –
O=Nc1sc(=N\O)/c(=N/O)sc1NO | > 200 | 32.4 | –
O=c1ccc2cc(O)c(O)cc2o1 | > 1410 | 93.3 | –
CC1=NN(c2ccccc2)C(=O)C1=Nc1c(C)[nH]n(-c2ccccc2)c1=O | > 200 | > 200 | –
OC(c1ccccc1)c1ccc(C(O)c2ccccc2)cc1 (centres undefined) | > 123 | > 123 | –
CC(C)(C)[Si](C)(C)OC1C(n2ccc(=O)[nH]c2=O)OC(COC(c2ccccc2)(c2ccccc2)c2ccccc2)C1(CC#N)Sc1ccccc1 (centres undefined) | > 200 | > 200 | –
COc1ccc2c(c1)CCc1c-2n(CCN2CCOCC2)c2ccc(OC)cc12 | > 200 | 166 | –
CN1C(=O)C2C(C1=O)[C@H]1c3ccccc3C=CN1[C@@H]2C(=O)c1ccccc1 (some centres undefined) | > 200 | 148 | –
O=C1C=C(Nc2ccccc2C(=O)CC(=O)C(=O)Nc2ccc(Cl)cc2)c2ccccc2C1=O | > 39.8 | 2.19 | –
CCN(CC)c1c(C(=O)/C=C/c2ccccc2)c(-c2ccccc2)nn(C)c1=O | > 18.6 | 9.12 | –
CCOC(=O)NCC(=O)NCC(=O)NCC(N)=O | > 200 | > 200 | –
C1=CC2C(C3CN(c4ccccc4)N=C13)C1C3C4C=CC21C=CC43 (centres undefined) | > 200 | > 200 | –
N#C/C(=C1\SC(N=Nc2ccccc2)C(=O)N1c1ccccc1)c1nc2ccccc2[nH]1 (centres undefined) | > 6.03 | > 6.03 | –
COc1ccc2c(c1OC)C1=NCCc3c(OC)c(OC)c(OC)c-2c31 | – | – | inactive
CCOC(=O)c1[nH]c(Br)c(-c2ccc(Br)cc2)c1Br | > 2 | 0.912 | –
COc1ccc(C2CC(=O)c3ccccc3O2)cc1 (centres undefined) | > 200 | 97.7 | –
Nc1ccc(N=Nc2ccc(/C=C/c3ccc(N=Nc4ccc(N)c5cc(S(=O)(=O)O)ccc45)cc3S(=O)(=O)O)c(S(=O)(=O)O)c2)c2ccc(S(=O)(=O)O)cc12 | > 107 | 30.2 | –
COC(=O)c1nn(C(=N)c2ccc(Cl)cc2)c2c1CCC2 | > 813 | > 813 | –
NC(=S)NNCC(=O)CC(O)(C(F)(F)F)C(F)(F)Cl (centres undefined) | > 200 | 123 | –
COc1ccc2[nH]c3c(c2c1)CC(=O)N1CCC[C@H](C1)CC31OCCCO1 | > 200 | 112 | –
NC(CSS(=O)(=O)O)=NCc1cccs1 | > 200 | > 100 | –

SMILES | EC50 [µM] | IC50 [µM] | outcome
NC(N)=NC(CSSCC(N=C(N)N)C(=O)O)C(=O)O (centres undefined) | > 200 | > 200 | –
COC(=O)C(NC(=O)CNC(=O)CSc1nnc(COc2ccc(Cl)cc2)n1-c1ccccc1)C(C)C (centres undefined) | > 200 | 3.63 | –
NC(=O)CNC(=O)C1CCCN1C(=O)C1CCCCNOC(=O)CCC(NC(=O)OCC2c3ccccc3-c3ccccc32)C(=O)NC(Cc2c[nH]c3ccccc23)C(=O)N1 (centres undefined) (Fmoc-EW[X2]PG-NH2; ester 1-3; configuration not given here) | 70.8 | > 100 | –
O=c1oc2ccccc2c(-c2ccc(O)cc2)c1Oc1ccccc1 | > 200 | 20 | –
C=C(C)Cn1c(=O)n(CC(=C)C)c(=O)n(CC(=C)C)c1=O | > 200 | 81.3 | –
CCOC(=O)C1=C(c2ccccc2)C12N(Cc1ccccc1)C(=O)C2(c1ccccc1)c1ccccc1 (centres undefined) | > 200 | 11 | –
OC1CCC[C@@H]1Sc1ccccc1 (some centres undefined) | – | – | inactive
C=C1C2CC[C@H]3C45C=NC[C@](C)(CCC4)[C@H]5CCC3(C2)[C@H]1O | – | – | inactive
Cc1ccc(NC(=O)CCc2nc(=S)[nH][nH]2)cc1 | 251 | 331 | –
O=C(O)/C=C/c1ccccc1[N+](=O)[O-] | > 257 | > 257 | –
Cc1c(C#N)c2nc(C(=O)c3ccc(Br)cc3)cc(-c3ccc(Br)cc3)n2c1C | > 50.1 | > 50.1 | –
Cc1ccc(S(=O)(=O)c2c(C)cc(C)cc2C)cc1 | > 200 | 12.6 | –
Cc1c(C(=O)O)[nH]c(=O)[nH]c1=O | > 200 | > 200 | –
CC(C)S(=O)(=O)ON1C(=O)c2ccc([N+](=O)[O-])cc2C1=O | > 115 | 18.2 | –
C=C(C)Cn1c(=O)c2c(ncn2C)n(C)c1=O | > 200 | > 200 | –
CCCCN1C=CN2c3nc4cc(C)c(C)cc4n3C(C(=O)OC)=C(C(=O)OC)C12 (centres undefined) | – | – | inactive
C1=CC(=P(c2ccccc2)(c2ccccc2)c2ccccc2)C=C1 | – | – | inactive
O=[N+]([O-])c1cc(Cl)ccc1Sc1ccc(Cl)cc1[N+](=O)[O-] | > 129 | > 129 | –
CC(=O)C1=C(C)NC(C)=C(C(C)=O)C1c1cccc([N+](=O)[O-])c1 | 182 | > 200 | –
CN(C)c1nc2ccccc2[nH]1 | – | – | inactive
Cc1nc(CC2C(CO[Si](C)(C)C(C)(C)C)OC(n3ccc(=O)[nH]c3=O)C2O[Si](C)(C)C(C)(C)C)no1 (centres undefined) | > 200 | 6.61 | –
C=CCCCCCCCC(O)C1C[C@H](O)C(CCCCC)O1 (some centres undefined) | – | – | inactive
O=C(CC(c1ccccc1)C(Sc1ccccc1)(Sc1ccccc1)Sc1ccccc1)c1ccccc1 (centres undefined) | > 100 | > 100 | –

SMILES | EC50 [µM] | IC50 [µM] | outcome
CC(C)(C)OC(=O)NCCCCC(NC(=O)c1ccccc1)C(N)=O (centres undefined) | > 200 | > 200 | –
CCOC(=O)c1c(-c2ccccc2)nc2c(OC)nccn12 | > 200 | 126 | –
COC1OC(COC(=O)c2ccccc2)CC1F (centres undefined) | > 195 | 21.4 | –
CC(=O)OCC(OC(C)=O)C(OC(C)=O)C(OC(C)=O)C(=O)CNn1c(-c2ccccc2)nc2ccc(Br)cc2c1=O (centres undefined) | – | – | inactive
NC(=O)N/N=C/c1ccc(Cl)cc1 | > 132 | > 132 | –
CC(C)/C(Cl)=N\OC(=O)Nc1ccc(F)cc1 | – | – | inactive
CCc1c(C#N)c(=O)[nH]c(=O)n1CCN1CCN(C(=O)NCCCCCCNC(=O)N2CCN(CCn3c(CC)c(C#N)c(=O)[nH]c3=O)CC2)CC1 | – | – | inactive
OC(c1ccc(F)cc1)C(F)(F)c1nc2ccccc2o1 (centres undefined) | > 200 | > 200 | –
COC(=O)/C=C/c1ccc2c(c1)CC1(Cc3ccccc3C1)C2 | > 200 | > 200 | –
CNc1nc(C(N)=O)c(N)s1 | > 200 | > 200 | –
CC(C)OC/N=C(/N)NC#N | > 575 | > 575 | –
Brc1ccc2noc(-c3ccccc3)c2c1 | > 7.24 | > 7.24 | –
CCOC(=O)/C=C1\SC12C(C)(C)CCCC2(C)C | > 200 | 61.7 | –
Cc1ccc2c(ccc(/C=C\c3cc(C)c4cccnc4c3O)[n+]2C)c1 | > 39.8 | 0.776 | –
C1CCN2CC34CC(CC5CCCN(C6CCCC3N6)C54)C2C1 (centres undefined) | > 309 | > 309 | –
Cc1cc(=O)c2cc3ccc4c5[nH]c(C)cc(=O)c5cc5ccc(c2[nH]1)c3c54 | > 200 | 33.9 | –
CC(=O)CCn1ncc(Cl)c(Cl)c1=O | > 550 | 6.92 | –
COc1cc2c(cc1OC)C(c1ccc(N=Cc3ccc(N(C)C)cc3)cc1)N(C(=S)Nc1cc(Cl)ccc1Cl)CC2 (centres undefined) | – | – | inactive
COC(=O)C1CC=CCCC1=O (centres undefined) | > 776 | 275 | –
O=c1oc2cc(O)ccc2c(O)c1Cc1c(O)c2ccc(O)cc2oc1=O | > 200 | 162 | –
